Assay results taken from publication PMC12693135, “Ocular Toxicity and Mechanistic Investigation for Berberine and Its Metabolite Berberrubine on Zebrafish” (Molecules, 2025).

Experiments:
[1] = MTT cytotoxicity assay on HCE-T cells; type: cell-based, human; conditions: human, HCE-T human corneal epithelial cells; HCE-T cells, 24 h incubation
Method: The human corneal epithelial cell line HCE-T (Cellosaurus accession: CVCL_1272, RRID: CVCL_1272, RCB: RCB2280) was purchased from Procell Life Science and Technology Co., Ltd. (Wuhan, China). […] were cultured in high-glucose Dulbecco’s Modified Eagle Medium (DMEM), which was purchased from Procell Life Science and Technology Co., Ltd. (Wuhan, China). The high-glucose DMEM was DMEM basic medium supplemented with 15% fetal bovine serum (Procell), 1% penicillin/streptomycin (Procell), 5 μg/mL insulin, and 10 ng/mL human epidermal growth factor (Procell).
HCE-T cells were seeded in 96-well plates (8 × 10^3 cells/well, 100 μL medium) and cultured overnight at 37 °C, 5% CO2 for adhesion. BBR or its metabolites at various concentrations (BBR and M3 at the concentrations of 31.25, 62.5, 125, 250 and 500 µM, M1 and M4 at the concentrations of 25, 50, 100, 200 and 400 µM) in 0.5% DMSO were added and incubated for 24 h, with 0.5% DMSO in culture medium as the vehicle control. Subsequently, 20 μL MTT (5 mg/mL) was added to each well and the cells were cultured at 37 °C for 4 h. Then, the culture medium was removed, and 150 μL DMSO was added to dissolve formazan crystals and the absorbance at 570 nm was measured on a Synergy H1 multifunctional microplate reader (Biotek, Winooski, VT, USA). The IC50 values of test compounds were calculated by Graphpad Prism 8.5 (GraphPad Software Co., San Diego, CA, USA).

[2] = tested on: zebrafish larvae eye; test: Zebrafish eye length and area experiment; type: in vivo, zebrafish (Danio rerio); conditions: zebrafish larvae at 5 dpf vs 0.05% DMSO control; BBR 20-200 µM, M1 20-625 µM
Method: Half of the epiboly embryos (6 hpf under standard conditions) were exposed to solutions (2 mL) of BBR at the concentrations of 20, 50, 100, and 200 µM or M1 at the concentrations of 20, 50, 100, 200, 400, and 625 µM and cultured under standard conditions, taking 0.05% DMSO in saline as the control. The experiment was performed three times using 30 embryos per concentration (n = 90 per group in total). At 5 dpf, embryos were washed 3× with normal medium, transferred to fresh medium, and photographed by E3ISPM20000KPA digital camera (ToupTek, Hangzhou, China), with the magnification of 10–40× and exposure time of 200–500 ms. Then the eye length and area were measured and analyzed using Image J V2.1.X (NIH, Bethesda, MD, USA). Data (eye length/area) were expressed as mean ± SD, compared with the control group, and plotted.

[3] = tested on: wild-type AB strain zebrafish larvae; test: Zebrafish visual motor response (locomotor behavior, dark/light); type: in vivo, zebrafish (Danio rerio); conditions: for swimming pattern (trajectories) upon light stimulation: first 30 s of light stimulation, compared to controls
Method: Wild-type larvae (6 hpf, 30 per group) were incubated with BBR at the concentrations of 20, 50, 100, and 200 µM or M1 at the concentrations of 20, 50, 100, 200, 400, and 625 µM for 5 days. At 120 hpf, larvae were tested in a 96-well plate (1 larva/well, 12 per group). After 10 min acclimation, light-dark transition tests were performed (5 min dark to 5 min light, repeated 3 times), with recordings every 1 min for 40 min. The trajectory and 1 min movement distance were recorded by Behavioral Tracking System: Daniovision, Zebralab 3.3 (ViewPoint, Civrieux, France). Data were processed in Excel (Microsoft, Redmond, WA, USA). Metrics included 1 min total distance, movement time, and average speed. Averages of 12 larvae per group were used for bar graphs; comparisons with the control group were analyzed via t-test. The experiment was conducted three times in parallel.

[4] = tested on: transgenic mitochondrial fluorescent zebrafish (strain Tg(Xla.Eef1a1:mlsEGFP)); test: Fluorescence microscopy for mitochondrial function; type: in vivo, zebrafish (Danio rerio); conditions: 5-dpf larvae; BBR 25 or 50 μM, M1 100 or 200 μM
Method: Strain Tg(Xla.Eef1a1:mlsEGFP) zebrafish larvae (6 hpf) were treated with BBR (25 or 50 μM), M1 (100 or 200 μM), or 0.05% DMSO (control) until 5 dpf, with 30 larvae per treatment and three biological replicates (total 90 larvae per group). Then, 10 larvae were randomly selected from each experimental group and imaged using a motorized-focus continuous-zoom fluorescence microscope AZ100 (Nikon, Japan) with the magnification of 10–40× and exposure time of 200–500 ms. The fluorescence intensity of ocular apoptotic cells in zebrafish larvae and mitochondria throughout the zebrafish were measured and analyzed using NIS-Elements (Nikon Imaging Software, Nikon, Japan). The experiment was conducted three times in parallel.

[5] = tested on: mitochondrial complex I (NADH dehydrogenase); test: Mitochondrial complex I activity assay in treated zebrafish larvae; type: in vivo, zebrafish (Danio rerio); conditions: BBR 25 or 50 μM, M1 100 or 200 μM, 5 dpf
Method: Wild-type AB strain zebrafish (6 hpf) were treated with BBR (25 or 50 μM), M1 (100 or 200 μM), or 0.05% DMSO (control) until 5 dpf, with 9 larvae per treatment and three biological replicates ([…]). Three zebrafish larvae were harvested per group (3 samples per group) and homogenized on ice following the protocol of the Mitochondrial Respiratory Chain Complex I Activity Assay Kit (Solabor, Beijing, China). Briefly, cell homogenates were centrifuged at 600× g for 5 min at 4 °C, and the supernatants were transferred to new microcentrifuge tubes. The samples were then centrifuged again at 11,000× g for 10 min at 4 °C; the precipitates (containing mitochondria) were used for the complex I activity assay. These precipitates were subjected to ultrasonication in the appropriate reaction buffer, and reactions were set up according to the protocol. After mixing, the OD340 values at time 0 (OD1) and at 2 min (OD2) were recorded using a Synergy H1 multifunctional microplate reader (Biotek, Winooski, VT, USA). The ΔOD value was calculated by subtracting OD2 from OD1. Mitochondrial complex I activity was calculated according to the formula provided in the protocol and expressed as units per mg of sample protein.

Row | Structure (SMILES) | IC50 at 24 h [1] | eye length and eye area [2] | average swimming speed, dark conditions ([3]; dark, 200 μM) | swimming distance and duration, dark conditions ([3]; dark, concentrations above 100 μM) | swimming pattern (trajectories) upon light stimulation [3] | locomotor metrics (distance, time, speed) upon light stimulation ([3]; light stimulation, 200 μM) | mitochondrial density [4] | mitochondrial complex I activity [5] | average swimming distance ([3]; 625 μM) | swimming duration ([3]; concentrations above 200 μM) | locomotion in the dark ([3]; dark, 20-625 µM)
1 | COc1ccc2cc3[n+](cc2c1OC)CCc1cc2c(cc1-3)OCO2 [BBR, berberine] | 301 µM | significantly and dose-dependently reduced | decreased average speed | significantly reduced | irregular and disorganized swimming patterns | significant reductions in all three locomotor metrics | decrease in the mitochondrial density | dose-dependently suppressed | – | – | –
2 | COc1ccc2cc3[n+](cc2c1O)CCc1cc2c(cc1-3)OCO2 [M1, berberrubine] | 232 µM | significantly and dose-dependently reduced | – | – | irregular and disorganized swimming patterns | – | decrease in the mitochondrial density | marked, dose-dependent decrease | reduced average swimming distance | decreased swimming duration | did not affect locomotion in the dark
